Data as given in ChEMBL document CHEMBL1141906, “Novel cyclized Pifithrin-alpha p53 inactivators: synthesis and biological studies” (Bioorg Med Chem Lett, 2005).

tested on: not listed separately; assay: Half reaction time was determined; assay type: ADME; settings: mouse

Row | half-life | SMILES
1 | 720 min | Br.COc1ccc(C(=O)C(C#N)n2c3c(sc2=N)CCCC3)cc1 (stereo unspecified)
2 | 360 min | Br.N=c1sc2c(n1CC(=O)c1ccc([N+](=O)[O-])cc1)CCCC2
3 | 240 min | Br.Cc1ccc(C(=O)Cn2c3c(sc2=N)CCCC3)cc1
4 | 300 min | Br.N=c1sc2c(n1CC(=O)c1ccc([N+](=O)[O-])cc1)CC1CCCCC1C2 (stereo unspecified)

organism: Mus musculus; assay: Effective concentration required to protect mouse embryo cortical neurons against a DNA-damaging agent; assay type: functional; settings: not given

Row | SMILES | EC50
5 | O=[N+]([O-])c1ccc(-c2cn3c4c(sc3n2)CCCC4)cc1 | ~30 nM
6 | Br.COc1ccc(C(=O)C(C#N)n2c3c(sc2=N)CCCC3)cc1 (stereo unspecified) | ~30 nM
